Results from patent publication US20110207793A1, “1-AMINOCYCLOHEXANE DERIVATIVES FOR THE TREATMENT OF SLEEP DISORDERS” (priority 2008, published 2011).

Experiments:
[1] = system: subjects with subjective tinnitus of at least moderate severity; experiment: Double-blind placebo-controlled pilot trial of neramexane in tinnitus: TBF-12; type: in vivo, human; conditions: final daily doses of 50 or 75 mg, after 16-week double-blind treatment (Visit 6); distinct from placebo or low-dose (25 mg)
Method: (§1) The objective of this pilot project was to conduct a clinical trial to assess the efficacy of neramexane as a treatment for tinnitus. The primary objective of this study was to compare the efficacy, tolerability and safety of neramexane mesylate at three different dosages (25, 50 or 75 mg/d) with placebo in subjects with subjective tinnitus of at least moderate severity.
(§2) In a double-blind, multicenter, randomized, placebo-controlled, parallel-group study, the efficacy of neramexane in subjects suffering from tinnitus of at least moderate severity was assessed. Approximately 100 patients, who fulfilled particular inclusion criteria and met none of particular exclusion criteria, were randomized to each of four double-blind treatment groups (neramexane mesylate 25, 50, 75 mg/d or placebo), resulting in approximately 400 patients in total.
The double-blind, 16-week treatment period consisted of a 4-week uptitration period and a 12-week fixed-dose treatment period at unchanged maintenance b.i.d. dosing. In case of poor tolerability, however, the investigator could consider a dose reduction by 25 mg/d (or placebo, respectively). […]
Visit 1 (screening): After signing the consent form, the subject underwent a physical examination and clinical laboratory testing. Patient eligibility for the study was evaluated via a check of inclusion/exclusion criteria. […]

[2] = system: subjects with subjective tinnitus of at least moderate severity; experiment: Double-blind placebo-controlled pilot trial of neramexane in tinnitus: question 12/5 (sleep item) of the structured tinnitus interview; type: in vivo, human; conditions: for TI Sleep item 12/5: Prevented (%) / TI Sleep item 12/5: Prevented n / TI Sleep item 12/5: affected (%) / TI Sleep item 12/5: affected n / TI Sleep item 12/5: no effect (%) / TI Sleep item 12/5: no effect n: ITT-OC
Method: as §1, §2
The double-blind, 16-week treatment period consisted of a 4-week uptitration period and a 12-week fixed-dose treatment period at unchanged maintenance b.i.d. dosing. In case of poor tolerability, however, the investigator could consider a dose reduction by 25 mg/d (or placebo, respectively). After the treatment phase, there was a 4-week follow-up period with no active treatment and concomitant therapy restrictions. In total, this study involved seven study visits: screening, baseline, and at the end of weeks 4, 8, 12, 16, and 20.
Visit 2 (baseline): The subject was asked about adverse events and changes in concomitant medication/disease, which events/changes were documented. The subject was evaluated for study eligibility based on a review of the inclusion/exclusion criteria. Trial procedures as well as allowed and forbidden concomitant medications were reviewed with the subject. An initial Tinnitus Interview was conducted. The subject also completed a TBF-12, HADS-D Questionnaire and GÜF Questionnaire (if applicable). The subject was enrolled in the study and study medication (placebo or neramexane) was dispensed as described below.
Visit 6 (Week 16, end of treatment). This visit occurred at the end of the 12-week fixed-dose double-blind treatment period. The subject was asked about adverse events and changes in concomitant medication/disease, which changes are documented. A clinical laboratory evaluation was performed. A follow-up Tinnitus Interview was conducted, and the subject completed a TBF-12, HADS-D Questionnaire and GÜF Questionnaire (if applicable). Pure-tone audiometry (air conduction) was also conducted.
Visit 7 (Week 20): This visit occurred at the end of the 4-week follow-up period after the last study medication dose. Review of concomitant medications as well as the occurrence of adverse events since the last visit is conducted with subject. A follow-up Tinnitus Interview was conducted, and the subject completed a TBF-12, HADS-D Questionnaire and GÜF Questionnaire (if applicable).
Neramexane mesylate immediate release tablets (12.5 mg and 25 mg) and matching placebo tablets were administered as film coated tablets.
Study medication was dispensed at Visit 2 (baseline, day, 0). Each patient received one blister box containing 5 blister cards (including one reserve blister) of double-blind study medication (i.e., 32 tablets). Subjects were instructed to take 2 tablets twice daily (4 tablets/d), beginning the day after dispensing of the study medication, until they returned for their next study visit (Visit 3). For those subjects assigned to receive active medication, some placebo tablets were incorporated into the dosing regimen to ensure blinding during the uptitration period. The target fixed-maintenance dose of 25, 50, or 75 mg neramexane mesylate/d was administered starting with the fifth week of double-blind treatment and was continued throughout the study. […]

[3] = target: alpha9/alpha10 nicotinic receptor (Rattus norvegicus, UniProt P43144+Q9JLB5); conditions: Plazas, et al., Eur J Pharmacol., 2007; cited from earlier work
[4] = Follow-Up (Change from Baseline), 25 mg/d, N = 100
[5] = Follow-Up (Change from Baseline), 50 mg/d, N = 95
[6] = Follow-Up (Change from Baseline), 75 mg/d, N = 89
[7] = Week 16 Visit (Change from Baseline), 25 mg/d, N = 89
[8] = Week 16 Visit (Change from Baseline), 50 mg/d, N = 80
[9] = Week 16 Visit (Change from Baseline), 75 mg/d, N = 64

alpha9/alpha10 nicotinic receptor, sequence (P43144 26-479): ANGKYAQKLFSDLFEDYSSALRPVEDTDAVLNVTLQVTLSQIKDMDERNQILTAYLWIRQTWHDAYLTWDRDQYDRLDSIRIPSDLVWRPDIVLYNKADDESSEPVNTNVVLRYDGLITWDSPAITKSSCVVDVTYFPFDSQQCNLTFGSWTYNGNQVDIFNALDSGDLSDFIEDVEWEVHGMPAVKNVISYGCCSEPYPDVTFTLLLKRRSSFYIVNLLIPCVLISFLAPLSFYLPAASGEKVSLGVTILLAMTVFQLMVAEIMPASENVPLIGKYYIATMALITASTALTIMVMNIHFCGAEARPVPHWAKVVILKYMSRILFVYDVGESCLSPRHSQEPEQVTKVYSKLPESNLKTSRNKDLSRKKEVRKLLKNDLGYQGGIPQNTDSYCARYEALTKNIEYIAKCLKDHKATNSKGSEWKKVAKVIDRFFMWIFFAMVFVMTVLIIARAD
alpha9/alpha10 nicotinic receptor, sequence (Q9JLB5 25-447): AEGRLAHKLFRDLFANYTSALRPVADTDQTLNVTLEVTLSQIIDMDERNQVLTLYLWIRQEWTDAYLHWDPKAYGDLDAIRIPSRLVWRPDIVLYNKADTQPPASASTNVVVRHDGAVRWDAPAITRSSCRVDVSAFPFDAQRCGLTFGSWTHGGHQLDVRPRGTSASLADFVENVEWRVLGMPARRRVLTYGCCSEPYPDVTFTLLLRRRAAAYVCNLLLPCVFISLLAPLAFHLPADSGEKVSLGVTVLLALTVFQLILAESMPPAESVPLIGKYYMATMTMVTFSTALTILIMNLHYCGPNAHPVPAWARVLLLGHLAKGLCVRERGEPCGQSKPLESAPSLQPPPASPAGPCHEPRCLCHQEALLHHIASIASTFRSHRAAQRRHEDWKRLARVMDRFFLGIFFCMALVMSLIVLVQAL

Compound: CC1(C)CC(C)(C)CC(C)(N)C1 [Neramexane, 1-amino-1,3,3,5,5-pentamethylcyclohexane]
- improvement of tinnitus as measured by the TBF-12 [1]: clear improvement of their tinnitus
- TI Sleep item 12/5: Prevented (%) ([2]; Baseline, 25 mg/d, N = 106): 12.3%
- TI Sleep item 12/5: Prevented n ([2]; Baseline, 25 mg/d, N = 106): 13
- TI Sleep item 12/5: affected (%) ([2]; Baseline, 25 mg/d, N = 106): 64.2%
- TI Sleep item 12/5: affected n ([2]; Baseline, 25 mg/d, N = 106): 68
- TI Sleep item 12/5: no effect (%) ([2]; Baseline, 25 mg/d, N = 106): 23.6%
- TI Sleep item 12/5: no effect n ([2]; Baseline, 25 mg/d, N = 106): 25
- TI Sleep item 12/5: Prevented (%) ([2]; Baseline, 50 mg/d, N = 106): 6.6%
- TI Sleep item 12/5: Prevented n ([2]; Baseline, 50 mg/d, N = 106): 7
- TI Sleep item 12/5: affected (%) ([2]; Baseline, 50 mg/d, N = 106): 66.0%
- TI Sleep item 12/5: affected n ([2]; Baseline, 50 mg/d, N = 106): 70
- TI Sleep item 12/5: no effect (%) ([2]; Baseline, 50 mg/d, N = 106): 27.4%
- TI Sleep item 12/5: no effect n ([2]; Baseline, 50 mg/d, N = 106): 29
- TI Sleep item 12/5: Prevented (%) ([2]; Baseline, 75 mg/d, N = 99): 8.1%
- TI Sleep item 12/5: Prevented n ([2]; Baseline, 75 mg/d, N = 99): 8
- TI Sleep item 12/5: affected (%) ([2]; Baseline, 75 mg/d, N = 99): 68.7%
- TI Sleep item 12/5: affected n ([2]; Baseline, 75 mg/d, N = 99): 68
- TI Sleep item 12/5: no effect (%) ([2]; Baseline, 75 mg/d, N = 99): 23.2%
- TI Sleep item 12/5: no effect n ([2]; Baseline, 75 mg/d, N = 99): 23
- TI Sleep item 12/5: Prevented (%) [2, 4]: 3.0%
- TI Sleep item 12/5: Prevented n [2, 4]: 3
- TI Sleep item 12/5: affected (%) [2, 4]: 65.0%
- TI Sleep item 12/5: affected n [2, 4]: 65
- TI Sleep item 12/5: no effect (%) [2, 4]: 32.0%
- TI Sleep item 12/5: no effect n [2, 4]: 32
- TI Sleep item 12/5: Prevented (%) [2, 5]: 1.1%
- TI Sleep item 12/5: Prevented n [2, 5]: 1
- TI Sleep item 12/5: affected (%) [2, 5]: 57.9%
- TI Sleep item 12/5: affected n [2, 5]: 55
- TI Sleep item 12/5: no effect (%) [2, 5]: 41.1%
- TI Sleep item 12/5: no effect n [2, 5]: 39
- TI Sleep item 12/5: Prevented (%) [2, 6]: 3.4%
- TI Sleep item 12/5: Prevented n [2, 6]: 3
- TI Sleep item 12/5: affected (%) [2, 6]: 57.3%
- TI Sleep item 12/5: affected n [2, 6]: 51
- TI Sleep item 12/5: no effect (%) [2, 6]: 39.3%
- TI Sleep item 12/5: no effect n [2, 6]: 35
- TI Sleep item 12/5: Prevented (%) [2, 7]: 2.2%
- TI Sleep item 12/5: Prevented n [2, 7]: 2
- TI Sleep item 12/5: affected (%) [2, 7]: 65.2%
- TI Sleep item 12/5: affected n [2, 7]: 58
- TI Sleep item 12/5: no effect (%) [2, 7]: 32.6%
- TI Sleep item 12/5: no effect n [2, 7]: 29
- TI Sleep item 12/5: Prevented (%) [2, 8]: 1.3%
- TI Sleep item 12/5: Prevented n [2, 8]: 1
- TI Sleep item 12/5: affected (%) [2, 8]: 48.8%
- TI Sleep item 12/5: affected n [2, 8]: 39
- TI Sleep item 12/5: no effect (%) [2, 8]: 50.0%
- TI Sleep item 12/5: no effect n [2, 8]: 40
- TI Sleep item 12/5: Prevented (%) [2, 9]: 6.3%
- TI Sleep item 12/5: Prevented n [2, 9]: 4
- TI Sleep item 12/5: affected (%) [2, 9]: 50.0%
- TI Sleep item 12/5: affected n [2, 9]: 32
- TI Sleep item 12/5: no effect (%) [2, 9]: 43.8%
- TI Sleep item 12/5: no effect n [2, 9]: 28
- improvement of sleep, question 12/5 of the structured tinnitus interview ([2]; final daily doses of 50 or 75 mg, after 16 weeks of double-blind treatment, distinct from placebo or low-dose (25 mg)): clear improvement of their sleep
- activity at alpha9/alpha10 nicotinic receptor [3]: activity as an alpha9/alpha10 nicotinic receptor antagonist
